Test results: ChEMBL document CHEMBL1201862, “PubChem BioAssay data set” (2004)
Active and inactive are the calls of the source.

Tests used:
[1] = molecular target: T1, Nuclear receptor subfamily 0 group B member 1 (Homo sapiens, UniProt P51843); assay: Luminescence-based cell-based high throughput dose response assay for inhibitors of the orphan nuclear receptor subfamily 0, group B, member 1 (DAX1; NR0B1). [Related pubchem assays (depositor defined):AID504766, AID504790]; type: functional
T1 sequence (P51843 whole entry): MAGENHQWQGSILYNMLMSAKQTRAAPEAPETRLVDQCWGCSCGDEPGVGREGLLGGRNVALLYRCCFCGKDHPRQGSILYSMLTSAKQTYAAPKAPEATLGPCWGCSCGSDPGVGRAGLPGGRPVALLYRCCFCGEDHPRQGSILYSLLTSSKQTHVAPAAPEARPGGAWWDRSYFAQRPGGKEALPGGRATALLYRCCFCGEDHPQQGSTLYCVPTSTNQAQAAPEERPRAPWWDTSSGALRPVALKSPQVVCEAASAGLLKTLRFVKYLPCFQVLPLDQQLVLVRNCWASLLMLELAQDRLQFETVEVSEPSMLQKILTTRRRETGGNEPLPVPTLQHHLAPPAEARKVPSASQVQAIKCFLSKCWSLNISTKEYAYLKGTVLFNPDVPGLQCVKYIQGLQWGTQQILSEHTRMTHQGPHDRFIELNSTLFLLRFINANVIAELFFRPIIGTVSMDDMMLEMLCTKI

HEK293 [2] = assay: cells; type: functional, cell-based; details: Homo sapiens
HeLa = assay: ATP-based viability loss in HeLa cells – cell-based, CellTiter-Glo luminescence, cherry-pick samples, cytotoxicity control for MITF activator project, dose response (AID 540259); type: functional; details: Homo sapiens
[3] = reduction of Shn3 3'UTR-driven luciferase in osteoblasts – cell-based, Clone20 osteoblasts, firefly luciferase, cherry-picked, dose response (AID 624132); type: functional;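 also: firefly luciferase luminescence from reporter carrying the Shn3 3'UTR in osteoblasts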
HEK293 [4] = assay: EBV LMP1 TES2 canonical NF-kB signalling blockers – cell-based, HEK293, luciferase, cherry-pick, dose response (AID 588343); type: functional; details: Homo sapiens
cells [5] = type: functional, cell-based
cells [6] = type: functional, cell-based; remark: listed apart in the source
[7] = loss of viability in HepG2 cells – cell-based, CellTiter-Glo, cherry-picked, cytotoxicity control for Shn3 inhibitor project, dose response (AID 624134); type: functional
[8] = Counterscreen for AddAB inhibitors: absorbance-based bacterial cell-based high throughput dose response assay for inhibitors of bacterial viability. [Related pubchem assays (depositor defined):AID435030, AID449728, AID449731, AID488942, AID488955, AID488956]; type: functional
[9] = non-specific 3'UTR reporter inhibition in Clone20-Shn3RL – cell-based, Renilla luciferase, cherry-picked, counter-screen for Shn3 inhibitor project, dose response (AID 624133); type: functional
Exodeoxyribonuclease V = molecular target: T2, Exodeoxyribonuclease V (Escherichia coli (strain K12), UniProt P04993+P07648+P08394); assay: RecBCD inhibition via phage-restricted bacterial growth – absorbance, V66 E. coli, mutant T4 phage, counter-screen for AddAB inhibitor project, dose response (AID 492957); type: functional, cell-based, Escherichia coli str. K-12 substr. MG1655
T2 sequence (P04993 whole entry): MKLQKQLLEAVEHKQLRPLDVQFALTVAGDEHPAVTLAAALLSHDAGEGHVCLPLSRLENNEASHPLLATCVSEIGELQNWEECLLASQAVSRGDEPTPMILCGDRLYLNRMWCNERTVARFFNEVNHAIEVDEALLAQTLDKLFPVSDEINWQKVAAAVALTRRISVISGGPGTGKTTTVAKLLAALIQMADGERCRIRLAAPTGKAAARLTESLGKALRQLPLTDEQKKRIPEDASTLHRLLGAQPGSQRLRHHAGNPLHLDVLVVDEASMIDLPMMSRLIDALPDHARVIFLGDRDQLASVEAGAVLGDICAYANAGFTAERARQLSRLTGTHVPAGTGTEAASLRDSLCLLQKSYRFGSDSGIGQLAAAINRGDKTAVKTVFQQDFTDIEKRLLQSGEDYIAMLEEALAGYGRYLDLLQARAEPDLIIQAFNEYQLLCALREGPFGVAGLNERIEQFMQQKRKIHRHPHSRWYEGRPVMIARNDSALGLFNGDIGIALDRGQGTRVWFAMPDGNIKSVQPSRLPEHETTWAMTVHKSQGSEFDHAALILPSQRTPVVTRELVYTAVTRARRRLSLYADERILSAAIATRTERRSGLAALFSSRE
T2 sequence (P07648 whole entry): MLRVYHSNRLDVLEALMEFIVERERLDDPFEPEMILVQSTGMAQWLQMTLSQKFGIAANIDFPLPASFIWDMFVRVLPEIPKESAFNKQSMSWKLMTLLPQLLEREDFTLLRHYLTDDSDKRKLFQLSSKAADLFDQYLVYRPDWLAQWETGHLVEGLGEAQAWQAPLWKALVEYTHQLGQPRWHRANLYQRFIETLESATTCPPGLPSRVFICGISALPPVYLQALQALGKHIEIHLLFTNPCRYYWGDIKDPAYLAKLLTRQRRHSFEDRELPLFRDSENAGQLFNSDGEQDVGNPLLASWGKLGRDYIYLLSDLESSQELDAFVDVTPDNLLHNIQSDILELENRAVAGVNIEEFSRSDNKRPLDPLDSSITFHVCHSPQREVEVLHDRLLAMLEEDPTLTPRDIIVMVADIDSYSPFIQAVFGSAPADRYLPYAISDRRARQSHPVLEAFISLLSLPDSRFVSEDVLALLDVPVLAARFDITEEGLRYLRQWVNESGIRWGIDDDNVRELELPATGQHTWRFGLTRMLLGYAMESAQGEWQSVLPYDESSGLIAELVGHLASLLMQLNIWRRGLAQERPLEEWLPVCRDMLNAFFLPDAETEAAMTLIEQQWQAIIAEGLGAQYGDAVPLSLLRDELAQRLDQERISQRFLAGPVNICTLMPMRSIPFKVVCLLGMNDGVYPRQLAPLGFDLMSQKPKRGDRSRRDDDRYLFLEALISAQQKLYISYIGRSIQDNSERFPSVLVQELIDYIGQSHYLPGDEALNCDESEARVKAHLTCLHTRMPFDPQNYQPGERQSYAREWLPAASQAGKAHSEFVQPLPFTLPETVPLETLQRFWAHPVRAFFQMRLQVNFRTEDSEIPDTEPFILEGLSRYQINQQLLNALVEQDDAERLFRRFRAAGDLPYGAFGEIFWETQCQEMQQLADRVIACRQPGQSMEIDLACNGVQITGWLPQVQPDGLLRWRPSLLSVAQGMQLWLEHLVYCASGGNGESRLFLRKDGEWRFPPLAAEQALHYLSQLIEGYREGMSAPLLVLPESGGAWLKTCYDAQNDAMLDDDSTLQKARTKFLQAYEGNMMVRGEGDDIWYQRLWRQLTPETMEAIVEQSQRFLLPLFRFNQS
T2 sequence (P08394 whole entry): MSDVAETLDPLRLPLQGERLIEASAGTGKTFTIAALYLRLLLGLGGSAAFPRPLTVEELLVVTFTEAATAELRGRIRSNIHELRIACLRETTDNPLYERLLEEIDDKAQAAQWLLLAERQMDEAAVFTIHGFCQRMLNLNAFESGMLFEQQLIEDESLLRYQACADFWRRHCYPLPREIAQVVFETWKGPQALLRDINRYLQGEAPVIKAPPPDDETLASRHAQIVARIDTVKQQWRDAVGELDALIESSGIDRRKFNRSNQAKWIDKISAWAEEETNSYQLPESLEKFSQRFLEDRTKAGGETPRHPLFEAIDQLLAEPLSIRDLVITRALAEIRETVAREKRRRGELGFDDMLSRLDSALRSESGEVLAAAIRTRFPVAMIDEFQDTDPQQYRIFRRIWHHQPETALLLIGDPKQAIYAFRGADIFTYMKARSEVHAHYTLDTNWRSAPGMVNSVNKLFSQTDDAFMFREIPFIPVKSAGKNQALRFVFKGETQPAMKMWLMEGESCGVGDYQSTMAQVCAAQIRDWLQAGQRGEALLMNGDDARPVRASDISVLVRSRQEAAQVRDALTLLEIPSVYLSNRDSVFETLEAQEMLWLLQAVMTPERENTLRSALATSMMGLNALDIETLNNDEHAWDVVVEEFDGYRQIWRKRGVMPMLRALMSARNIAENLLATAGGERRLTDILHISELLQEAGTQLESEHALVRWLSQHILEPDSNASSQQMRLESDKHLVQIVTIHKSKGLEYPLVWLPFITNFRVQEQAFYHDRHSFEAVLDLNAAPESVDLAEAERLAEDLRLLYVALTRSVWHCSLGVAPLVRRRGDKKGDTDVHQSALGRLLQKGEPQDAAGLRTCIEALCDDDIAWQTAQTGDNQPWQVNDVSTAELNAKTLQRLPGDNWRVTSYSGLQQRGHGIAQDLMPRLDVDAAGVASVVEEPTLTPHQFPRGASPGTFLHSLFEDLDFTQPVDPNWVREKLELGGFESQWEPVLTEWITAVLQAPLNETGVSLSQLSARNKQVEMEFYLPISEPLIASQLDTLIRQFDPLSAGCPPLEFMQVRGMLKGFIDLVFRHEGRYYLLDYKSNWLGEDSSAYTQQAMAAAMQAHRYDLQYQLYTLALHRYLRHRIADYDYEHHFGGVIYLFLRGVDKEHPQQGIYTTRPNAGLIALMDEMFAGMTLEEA

[10] = molecular target: Heat shock protein HSP 90-alpha (Homo sapiens, UniProt P07900); type: functional, organism-based
Steroidogenic factor 1 = Steroidogenic factor 1 (Homo sapiens, UniProt Q13285); assay: Counterscreen for inverse agonists of the liver receptor homolog-1 (LRH-1; NR5A2): Luminescence-based cell-based high throughput dose response assay to identify inverse agonists of the Steroidogenic Factor 1 Nuclear Receptor (SF1; NR5A1).; type: functional
cells [11] = type: functional
[12] = Vero E6 cell cytotoxicity, dose response, cytotoxicity control for non-replicating M. tuberculosis project, secondary assay (AID 492998); type: functional, VeroE6; details: Vero C1008
[13] = nonselective StAR promoter luciferase inhibitors – cell-based, luminescence, luciferase reporter, counter-screen for LRH-1 inverse agonist project, dose response (AID 651969); type: functional
[14] = molecular target: Nuclear receptor subfamily 5 group A member 2 (Homo sapiens, UniProt O00482); type: functional, cell-based;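 also: HEK293T cells transfected with LRH-1 and a StAR promoter luciferase reporter; potency for inhibitors that lower LRH-1 driven reporter light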
[15] = THP-1 cell cytotoxicity, dose response, cytotoxicity control for non-replicating M. tuberculosis project (AID 489025); type: functional
CAAX prenyl protease 2 = molecular target: T3, CAAX prenyl protease 2 (Homo sapiens, UniProt Q9Y256); assay: inhibition of Ras-converting CAAX protease Rce1 – biochemical, yeast membranes, quenched-peptide fluorescence, cherry-pick, dose response (AID 588849)
T3 sequence (Q9Y256 whole entry): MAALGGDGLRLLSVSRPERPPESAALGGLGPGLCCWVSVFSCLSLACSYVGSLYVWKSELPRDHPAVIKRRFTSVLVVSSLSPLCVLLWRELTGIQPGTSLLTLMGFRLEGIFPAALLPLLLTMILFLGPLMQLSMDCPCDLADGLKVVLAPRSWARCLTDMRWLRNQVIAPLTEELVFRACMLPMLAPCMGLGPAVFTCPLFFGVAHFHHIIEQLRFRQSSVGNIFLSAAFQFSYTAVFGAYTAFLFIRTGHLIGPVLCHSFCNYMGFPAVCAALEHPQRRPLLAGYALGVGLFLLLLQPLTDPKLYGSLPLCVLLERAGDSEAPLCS

[16] = molecular target: Voltage-gated inwardly rectifying potassium channel KCNH2 (Homo sapiens, UniProt Q12809); details: Potency;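 also: confirmatory quantitative high-throughput screen measuring inhibition of hERG channel activity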
Chain of Voltage-gated inwardly rectifying potassium channel KCNH2 (Q12809 whole entry): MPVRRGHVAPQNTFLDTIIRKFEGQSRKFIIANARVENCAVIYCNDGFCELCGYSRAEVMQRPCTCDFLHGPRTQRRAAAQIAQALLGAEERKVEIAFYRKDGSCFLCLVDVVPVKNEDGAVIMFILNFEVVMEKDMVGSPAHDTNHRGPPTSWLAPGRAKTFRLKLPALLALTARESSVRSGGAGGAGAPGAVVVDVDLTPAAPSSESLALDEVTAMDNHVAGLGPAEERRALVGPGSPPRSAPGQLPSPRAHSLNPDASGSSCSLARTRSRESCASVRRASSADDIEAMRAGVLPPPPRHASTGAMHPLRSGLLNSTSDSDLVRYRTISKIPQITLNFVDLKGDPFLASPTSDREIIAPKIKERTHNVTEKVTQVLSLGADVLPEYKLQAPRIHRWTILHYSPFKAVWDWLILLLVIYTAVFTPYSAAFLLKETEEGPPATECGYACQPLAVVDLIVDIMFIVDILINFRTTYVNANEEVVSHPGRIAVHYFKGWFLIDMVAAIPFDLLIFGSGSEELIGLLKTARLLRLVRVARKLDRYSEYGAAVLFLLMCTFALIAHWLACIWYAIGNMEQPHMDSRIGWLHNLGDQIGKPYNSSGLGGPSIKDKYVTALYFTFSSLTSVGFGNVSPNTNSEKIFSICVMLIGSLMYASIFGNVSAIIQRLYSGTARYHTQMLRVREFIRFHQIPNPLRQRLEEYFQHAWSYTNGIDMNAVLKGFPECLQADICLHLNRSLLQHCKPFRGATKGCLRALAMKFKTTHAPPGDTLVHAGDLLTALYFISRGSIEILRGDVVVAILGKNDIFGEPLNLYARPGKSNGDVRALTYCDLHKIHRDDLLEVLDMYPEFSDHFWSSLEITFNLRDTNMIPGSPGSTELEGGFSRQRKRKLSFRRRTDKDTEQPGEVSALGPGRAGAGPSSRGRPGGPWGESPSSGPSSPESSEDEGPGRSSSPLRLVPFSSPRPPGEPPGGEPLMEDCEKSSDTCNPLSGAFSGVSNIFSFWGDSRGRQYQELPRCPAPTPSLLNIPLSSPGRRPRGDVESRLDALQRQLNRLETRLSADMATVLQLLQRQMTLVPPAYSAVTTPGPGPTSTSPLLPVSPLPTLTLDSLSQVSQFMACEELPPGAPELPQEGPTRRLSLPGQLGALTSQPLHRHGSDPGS

Chain of Steroidogenic factor 1 (Q13285 whole entry): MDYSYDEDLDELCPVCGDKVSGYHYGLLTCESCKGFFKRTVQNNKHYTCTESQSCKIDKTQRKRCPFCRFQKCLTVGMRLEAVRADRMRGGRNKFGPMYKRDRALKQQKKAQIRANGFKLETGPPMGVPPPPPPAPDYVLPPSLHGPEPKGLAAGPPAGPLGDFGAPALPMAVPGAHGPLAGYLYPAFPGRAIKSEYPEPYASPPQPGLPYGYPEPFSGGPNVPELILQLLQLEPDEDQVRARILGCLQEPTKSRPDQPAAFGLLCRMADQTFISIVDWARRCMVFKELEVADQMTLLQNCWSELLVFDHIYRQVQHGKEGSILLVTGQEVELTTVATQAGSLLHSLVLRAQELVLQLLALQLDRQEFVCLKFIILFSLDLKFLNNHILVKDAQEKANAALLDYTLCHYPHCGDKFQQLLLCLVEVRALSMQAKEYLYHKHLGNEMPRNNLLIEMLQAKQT
Chain of Nuclear receptor subfamily 5 group A member 2 (O00482 whole entry): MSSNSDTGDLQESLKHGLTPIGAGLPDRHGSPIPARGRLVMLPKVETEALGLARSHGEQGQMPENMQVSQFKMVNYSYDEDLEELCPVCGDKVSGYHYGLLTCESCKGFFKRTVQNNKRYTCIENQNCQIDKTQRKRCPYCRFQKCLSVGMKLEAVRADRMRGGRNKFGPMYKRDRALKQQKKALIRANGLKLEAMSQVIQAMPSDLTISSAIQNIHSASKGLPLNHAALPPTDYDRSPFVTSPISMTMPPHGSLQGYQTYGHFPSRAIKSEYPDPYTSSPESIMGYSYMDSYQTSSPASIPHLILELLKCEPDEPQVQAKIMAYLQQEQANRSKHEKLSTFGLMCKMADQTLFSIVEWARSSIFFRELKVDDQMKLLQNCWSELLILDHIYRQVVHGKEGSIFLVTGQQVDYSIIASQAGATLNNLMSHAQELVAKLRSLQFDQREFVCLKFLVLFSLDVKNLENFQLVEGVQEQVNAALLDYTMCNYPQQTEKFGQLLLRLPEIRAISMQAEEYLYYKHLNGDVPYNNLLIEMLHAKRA

## COC(=O)c1sc(=S)n(Cc2ccccc2)c1C
[1]
  IC50: > 67.5 µM (inactive)
HEK293 [2]
  IC50: > 67.5 µM (inactive)

## COc1ccc(NC2=Nc3ccccc3CC2)cc1
HeLa
  AC50: > 350 µM (inactive)

## CC(C)C(=O)NC(c1cccc([N+](=O)[O-])c1)c1ccc2cccnc2c1O (centres undefined)
[3]
  AC50: 2.57 µM (active)
HEK293 [4]
  AC50: 6.46 µM (active)
Cells [5]
  EC50: 6.78 µM (active)
Cells [6]
  EC50: > 350 µM (not active)
[7]
  AC50: 2.17 µM (active)
[8]
  IC50: > 119 µM (inactive)
[9]
  AC50: 0.924 µM (active)
Exodeoxyribonuclease V
  IC50: > 119 µM (inactive)
[10]
  AC50: 2.7 µM (active)

## Cc1onc(-c2ccccc2)c1C(=O)ON=C(N)c1ccc([N+](=O)[O-])o1
Steroidogenic factor 1
  IC50: 2.03 µM (active)
Cells [11]
  IC50: 6.29 µM (active)
[12]
  CC50: > 20 µM (active)
[13]
  IC50: 35.9 µM (inactive)
[8]
  IC50: 69.7 µM (inactive)
Exodeoxyribonuclease V
  IC50: > 119 µM (inactive)
[14]
  IC50: 11.1 µM (inactive)
[15]
  CC50: > 40 µM (active)

## COC(=O)C1(Cc2ccc(O)cc2)OC(=O)C(O)=C1c1ccc(O)cc1 (centres undefined)
[1]
  IC50: > 67.5 µM (inactive)
HEK293 [2]
  IC50: 56.1 µM (inactive)

## Cc1ccc(S(=O)(=O)Nc2ccccc2C(=O)NCC2CCCO2)cc1 (centres undefined)
CAAX prenyl protease 2
  AC50: 44.8 µM (active)

## CSCc1ccc(C(=O)Nc2cc(C)cc(C)c2)cc1
HeLa
  AC50: 161 µM (active)

## Cc1ccccc1S(=O)(=O)NC(=Nc1nc2ccccc2s1)c1ccccc1
HeLa
  AC50: 263 µM (active)

## COCCNC(=O)C(c1ccc(Cl)cc1)N(Cc1ccco1)C(=O)CCC(=O)Nc1ccccn1 (centres undefined)
[1]
  IC50: > 67.5 µM (inactive)
HEK293 [2]
  IC50: > 67.5 µM (inactive)

## COc1ccc2c3c1O[C@H]1C(=O)CC[C@@]4(O)C(C2)N(CC2CC2)CCC314 (some centres undefined)
[16]
  AC50: 17.8 µM (inconclusive)

## CN1[C@@H]2CC[C@H]1C[C@@H](OC(c1ccccc1)c1ccccc1N)C2 (some centres undefined) [AMINOBENZTROPINE]
[16]
  AC50: 11.2 µM (inconclusive)
